# From patent US20140107104A1, “COMBINATION MEDICINE FOR TREATMENT OF DEPRESSION” (priority 2011, published 2014)
# Legend:
# dentate gyrus = test: Microarray analysis of genes expressed in the dentate gyrus; type: in vivo, mice; conditions: for expression of depression-related gene group: SKF81297 3 mg/(kg day) i.p. days 10-14; for mRNA expression level Alox8: control C 2.02; for mRNA expression level Drd4: control C 29.28; for mRNA expression level Prir (second line): control C 36.03; for mRNA expression level Drd1a: control C 46.26; for mRNA expression level Prir (first line): control C 48.03; for mRNA expression level S100a4: control C 337.31; for mRNA expression level Anxa2: control C 483.27; for mRNA expression level Rgs4 (second line): control C 687.50; for mRNA expression level Htr4: control C 723.76; for mRNA expression level Furin: control C 742.58; for mRNA expression level Gfap (third line): control C 1308.81; for mRNA expression level Bdnf: control C 1312.91; for mRNA expression level Rgs4 (first line): control C 2347.43; for mRNA expression level Gfap (second line): control C 3008.11
# Protocol: Then, microarray analysis of genes expressed in the dentate gyrus of these mice was performed.
# The microarray analysis was performed as follows. Total RNA was isolated from the hippocampus of each mouse by TRIzol method (Invitrogen, Carlsbad, Calif.) and then purified using an RNeasy column (Qiagen, Valencia, Calif.). Double strand cDNA was synthesized from the total RNA, and in vitro transcription reaction was performed using biotin-labeled RNA prepared from the cDNA. The labeled RNA was hybridized with Mouse Genome 430 2.0 Array (Affymetrix, Santa Clara, Calif.) comprising specific probe sets, and washing was performed according to the manufacturer's recommendations. The hybridized probe array was stained with streptoavidin conjugate phycoerythrin, and each GeneChip was scanned using Affymetrix GeneChip scanner 3000 (GCS3000). GeneChip analysis was performed using Microarray Analysis Suite version 5.0.
# [1] = tested on: hippocampal dentate gyrus; test: RT-PCR analysis of mRNA expression in hippocampal dentate gyrus after antidepressant pellet; type: in vivo, mice; conditions: subcutaneously implanted pellet, 14 days, compared to placebo pellet
# Protocol: The method of subcutaneously implanting each pellet was as follows: a small incision about 5 mm was made in the neck skin of each mouse, a pellet was inserted through the incision to a depth of about 2 cm with tweezers for indwelling, and the skin was sutured.
# Total RNA was isolated from the hippocampal dentate gyrus of the mice treated with the fluoxetine pellet or the control pellet. First strand cDNA was prepared from 1 ug of DNaseI-treated total RNA using a reverse transcriptase QuantiTect (registered trademark, Qiagen, Valencia, Calif.). Gene expression was quantified using SYBR green (2×SYBR Green PCR Master Mix; Qiagen, Valencia, Calif.) according to the manufacturer's directions. Quantitative RT-PCR was performed using LightCycler (registered trademark) 480II real-time PCR detection system (Roche, Mannheim, Germany) in the following conditions (95° C.: 5 minutes; and then 40 cycles of 95° C.: 10 seconds, 60° C.: 30 seconds, and 65° C.: 1 minute). Beta-actin was amplified in all the samples for standardization of expression data. Whether or not the DNA region of each targeted gene was amplified was confirmed by melting curve analysis after RT-PCR (95° C.: 1 minute, 55° C.: 30 seconds, 95° C.: 30 seconds). The Ct value used was the average of 2 RT-PCR results.
# Experiments were conducted in the same manner as in “1.
# dopamine D1 receptor = test: Western blotting of dopamine D1 receptor protein in hippocampal dentate gyrus; type: in vivo, mice; conditions: fluoxetine pellet 14 days
# Description: The samples isolated from the hippocampal dentate gyrus of mice treated with a fluoxetine pellet or a control pellet were electrophoresed using acrylamide gel, and separated proteins were electrically transferred to a nitrocellulose membrane. The D1 receptor protein transferred to the membrane was immunologically detected using a D1 receptor antibody. In the immunological detection, Odyssey near-infrared fluorescent imaging system (LI-COR Biosciences, Lincoln, Nebr.) was used.
# [2] = tested on: dopamine D1 receptor signaling; test: Dopamine D1 receptor signaling in slices of the hippocampal dentate gyrus (phosphorylation of DARPP-32 and ERK); type: cell-based, mice
# Protocol: Harvested mouse brain was kept cool in ice-cooled and oxygenated Krebs-HCO3^− buffer, and using vibratome VT1000S (Leica Microsystems, Nussloch, Germany), 350-micrometer-thick continuous coronal slices were prepared. From the coronal slices, slices of the hippocampal dentate gyrus were cut out and used for experiments. Each slice of the hippocampal dentate gyrus was preincubated in 2 mL of Krebs-HCO3^− buffer for 60 minutes and treated with a dopamine D1 receptor agonist, namely SKF81297, and dopamine D1 receptor signaling was analyzed. As an indicator of dopamine D1 receptor signaling, phosphorylation of DARPP-32 (Thr34, PKA site) and of ERK was analyzed. The phosphorylation was analyzed by western blotting with a phosphorylation state-specific antibody.
# dopamine D1 receptor-GFP = test: Immunohistochemical analysis of dentate gyrus of dopamine D1 receptor-GFP mice; type: in vivo; conditions: fluoxetine pellet 14 days vs placebo pellet
# Protocol: Each mouse was anesthetized with sodium pentobarbital and perfused with 4% paraformaldehyde (PFA) in 0.1 M phosphate buffered saline (PBS). The brain was removed and subjected to immersion fixation in the same fixing fluid at 4° C. for another 2 hours and […] frontal-plane sections were prepared using a cryostat (Leica). The sections were washed with tris buffered saline (pH 7.4) containing Tween 20. For immunostaining, frozen sections were incubated with the following primary antibody: rabbit anti-calbindin D28K polyclonal antibody (1:3000 dilution; SWANT) at 4° C. for 18 hours. The anti-calbindin D28K polyclonal antibody is a maturation marker for granule cells. For detection of antigen localization, the sections were incubated with Alexa Fluor (594)-conjugate goat anti-rabbit IgG (1:400 dilution; Invitrogen) at 4° C. for 2 hours. Further, for nuclear staining, the sections were stained with DAPI. Fluorescent signals were each analyzed using a confocal laser scanning microscope (LSM5 Pascal, Zeiss).
# [3] = fluoxetine pellet 15 mg/(kg day)x14 days
Structure (SMILES),expression of depression-related gene group (dentate gyrus; [3]),mRNA expression level Alox8 (dentate gyrus; same regimen),mRNA expression level Drd4 (dentate gyrus; same regimen),mRNA expression level Prir (second line) (dentate gyrus; same regimen),mRNA expression level Drd1a (dentate gyrus; same regimen),mRNA expression level Prir (first line) (dentate gyrus; same regimen),mRNA expression level S100a4 (dentate gyrus; same regimen),mRNA expression level Anxa2 (dentate gyrus; same regimen),mRNA expression level Rgs4 (second line) (dentate gyrus; same regimen),mRNA expression level Htr4 (dentate gyrus; same regimen),mRNA expression level Furin (dentate gyrus; same regimen),mRNA expression level Gfap (third line) (dentate gyrus; same regimen),mRNA expression level Bdnf (dentate gyrus; same regimen),mRNA expression level Rgs4 (first line) (dentate gyrus; same regimen),mRNA expression level Gfap (second line) (dentate gyrus; same regimen),mRNA expression of calbindin [1],mRNA expression of desmoplakin [1],mRNA expression of dopamine D1 receptor [1],mRNA expression of interleukin-1 receptor [1],"mRNA expression of tryptophan 2,3-dioxygenase [1]",also measured
"Br.Oc1cc2c(c(Cl)c1O)CCNC[C@@H]2c1ccccc1 [SKF81297, R-(+)-6-chloro-7,8-dihydroxy-1-phenyl-2,3,4,5-tetrahydro-1H-3-benzazepine hydrobromide]",neither the SKF81297 sole administration nor the fluoxetine sole administration affected the expression of genes,2.12,30.92,160.90,43.87,61.94,389.62,684.27,1053.99,852.76,837.03,1962.44,1516.05,2742.21,4062.15,,,,,,"mRNA expression level S100a10 (dentate gyrus; fluoxetine pellet 15 mg/(kg day)x14 days, SKF81297 3 mg/(kg day) i.p.x5 days, control C 461.56): 469.21; mRNA expression level Gfap (first line) (dentate gyrus; same regimen, control C […]): 140.79"
CNCCC(Oc1ccc(C(F)(F)F)cc1)c1ccccc1 (stereo not shown) [fluoxetine],neither the SKF81297 sole administration nor the fluoxetine sole administration affected the expression of genes,2.11,35.57,84.69,114.21,48.69,353.74,568.07,1215.07,903.85,799.17,1757.42,1495.90,3659.58,3185.26,less mRNA expression,less mRNA expression,increase in the mRNA expression,less mRNA expression,less mRNA expression,"protein expression of dopamine D1 receptor as compared to placebo pellet (dopamine D1 receptor): 4 times; dopamine D1 receptor signaling ([2]; fluoxetine-induced dematured dentate gyrus slices): doubled; phosphorylation of ERK induced by SKF81297 ([2]; slices from mice with fluoxetine pellet 14 days vs placebo pellet): increased; phosphorylation of DARPP-32 (Thr34, PKA site) induced by SKF81297 ([2]; slices from mice with fluoxetine pellet 14 days vs placebo pellet, SKF81297 1 uM or 10 uM): increased; expression of calbindin in granule cells (dopamine D1 receptor-GFP): lowered; expression of dopamine D1 receptor-GFP in granule cells (dopamine D1 receptor-GFP): significantly increased expression"
CN(C)CCCN1c2ccccc2CCc2ccccc21 [imipramine],,,,,,,,,,,,,,,,less mRNA expression,less mRNA expression,increase in the mRNA expression,less mRNA expression,less mRNA expression,mRNA expression of BDNF [1]: increased
